Results published in patent publication US9139596B2, “Cyclic prodrugs of duocarmycin analogs” (The Scripps Research Institute, priority 2012, dated 2015).
Where two headings read alike, the source gives them in different places.

Tests used:
[1] = test system: L1210 murine leukemia cell line; experiment: In vitro cytotoxic activity (cell growth inhibition), L1210; format: cell-based; conditions: for IC50: Mus musculus
Protocol: In Vitro Cytotoxic Activity. Both (+)- and ent-(−)-6 and their N-Boc precursors 16 were tested for cell growth inhibition in a cytotoxic assay with the L1210 murine leukemia cell line.

w794 DNA = experiment: DNA alkylation in cell-free systems; format: biochemical
Excerpt: Lane 1, control DNA; lanes 2-5, Sanger G, C, A, and T sequencing reactions; lanes 6-8, (+)-1 (1×10^−4 to 1×10^−6); lanes 9-10, (−)−1 (1×10^−3 to 1×10^−4); lanes 11-12, (+)-6 (1×10^−1 to 1×10^−2).

[2] = Stability in mouse plasma (Table 4)
[3] = Stability in human plasma
Protocol: Reagents and solvents were purchased reagent-grade and used without further purification. Pooled human plasma, with sodium citrate as an anticoagulant, was purchased from Innovative Research and stored at −20° C. […] All reactions were performed in oven-dried glassware under an Ar atmosphere. Evaporation and concentration in vacuo was performed at 20° C. […] Chiral phase HPLC was performed using a Shimadzu HPLC on a semi-preparative Diacel ChiralCel OD column (0.46 cm×25 cm) with a flow rate of 7 mL/min and with UV detection at λ=254 nm. Optical rotations were determined on a Rudolf Research Analytical Autopol III Automatic Polarimeter (λ=589 nm, 25° C.).

[4] = test system: L1210 murine leukemia cells implanted ip; experiment: In vivo antitumor activity (L1210, ip); conditions: for Surviving Mice: live animals after 250 days
Protocol: Therefore, the in vivo antitumor activity of (+)-6 was assessed alongside seco-CBI-indole2 (4) in an antitumor model consisting of L1210 murine leukemia cells implanted ip into […] which has been used historically as an initial antitumor model for comparisons in this class.^11,12,14,15 A dose range of 300 to 9000 μg/kg for prodrug (+)-6 (scaled to its in vitro cytotoxic activity IC50) and 60 to 500 μg/kg for seco-CBI-indole2 (4) and a dosing schedule (administered three times ip on days 1, 5, and 9) for both compounds was employed.
B6D2F1 mice were injected intraperitoneal (i.p.) with syngeneic L1210 cells (1×10^6) on day 0. Ten mice were randomly assigned to control vehicle or treatment groups for compounds (+)-4 and (+)-6 at doses of 60, 100, 250, and 500 μg/kg/inj for (+)-4 or 300, 1000, 3000, and 9000 μg/kg/inj for (+)-6. Compounds (+)-4 and (+)-6 were formulated in 100% DMSO, and injected i.p. on study days 1, 5, and 9. Following injection of tumor cells, animals were monitored daily and weighed two times per week. Percent survival (T/C) for treated and control groups were determined by dividing the total survival days for each treatment group by the total survival days for the control group and multiplying ×100. All animal studies were carried out in the animal facilities of The University of Kansas Medical Center with strict adherence to the guidelines of the IACUC Animal Welfare Committee of KUMC (IACUC approval #2009-1837).

[5] = Stability in pH 7.0 phosphate buffer; conditions: for half-life: buffer
[6] = 300 μg/kg i.p. on days 1, 5, and 9
[7] = 1000 μg/kg i.p. on days 1, 5, and 9
[8] = 3000 μg/kg i.p. on days 1, 5, and 9
[9] = 9000 μg/kg i.p. on days 1, 5, and 9

O=C1Nc2cccc3c4c(cc(c23)O1)N(C(=O)c1cc2cc(NC(=O)c3cc5ccccc5[nH]3)ccc2[nH]1)C[C@H]4CCl [Compound 6, N-(2-(10-(Chloromethyl)-5-oxo-5,8,9,10-tetrahydro-4H-pyrrolo[3′,2′:5,6]naphtho[1,8-de][1,3]oxazine-8-carbonyl)-1H-indol-5-yl)-1H-indole-2-carboxamide]
fold less potent than the parent drug 20 ([1]; L1210): 30-70 fold
fold more potent than its unnatural enantiomer ([1]; L1210): 6 fold
potency of natural (S)- versus unnatural (R)-enantiomer ([1]; L1210): about one order of magnitude more potent
times more potent than its N-Boc precursor 16 ([1]; L1210): 100 to 1000 times
fold less potent than the free drug seco-CBI-indole2 4 ([1]; L1210, natural enantiomer): approximately 200 fold
IC50 ([1]; L1210, natural (S)-enantiomer, Table 4, read-out: In vitro IC50 L1210 natural): 6.6 nM
IC50 ([1]; L1210, natural enantiomer, Table 2, read-out: IC50 L1210 natural): 6.6 nM
IC50 ([1]; L1210, unnatural (R)-enantiomer, Table 4, read-out: In vitro IC50 L1210 unnatural): 40 nM
IC50 ([1]; L1210, unnatural enantiomer, Table 2, read-out: IC50 L1210 unnatural): 40 nM
IC50 ([1]; L1210, stated range, read-out: in vitro cellular potency (IC50)): 1 to 10 nM
DNA alkylation (w794 DNA): incapable of alkylating DNA
half-life [2]: 12 h
free drug release ([3]; human plasma, 48 h): 5%
half-life ([3]; human, plasma): > 48 h
MSP (Mean Survival Period) [4, 6]: 24.7 days
T/C (Treated/Control MSP x 100) [4, 6]: 140
Surviving Mice [4, 6]: 0/10
MSP (Mean Survival Period) [4, 7]: >48.5 days
T/C (Treated/Control MSP x 100) [4, 7]: >275
Surviving Mice [4, 7]: 1/10
MSP (Mean Survival Period) [4, 8]: >55.3 days
T/C (Treated/Control MSP x 100) [4, 8]: >310
Surviving Mice [4, 8]: 1/10
MSP (Mean Survival Period) [4, 9]: >172.6 days
T/C (Treated/Control MSP x 100) [4, 9]: >980
T/C (Treated/Control MSP x 100) ([4]; 9000 μg/kg i.p. on days 1, 5, and 9, listed as (+)-6): > 980
Surviving Mice [4, 9]: 5/10
antitumor activity over the dose range examined ([4]; 300 to 9000 μg/kg (30-fold range) i.p. on days 1, 5, and 9): productive antitumor activity over the entire and much larger dose range examined
tolerance at the injection sites ([4]; ip administration, compared with the free drug): tolerated at the injection sites of the animals much better than the free drug
half-life ([5]; pH 7, Stability t1/2, pH 7.0 phosphate buffer, Table 4): > 168 h
half-life ([5]; pH 7, t1/2, pH 7.0 phosphate buffer): > 672 h
cleavage of the prodrug ([5]; pH 7.0 phosphate buffer): no cleavage observed
